According to publication PMC3581553, “New Approaches of PARP-1 Inhibitors in Human Lung Cancer Cells and Cancer Stem-Like Cells by Some Selected Anthraquinone-Derived Small Molecules” (PLoS ONE, 2013):
Read-outs that look alike come from different tables or passages of the source.

Experiments:
NCI-H460 = experiment: NCI-60 drug screen (SRB), NSCLC line NCI-H460; assay type: cell-based, human; settings: for LC50 (concentration killing 50% of cells) / GI50: Homo sapiens
Description: (§1) As a primary screening, seven selected compounds were submitted to the National Cancer Institute (NCI) cell lines screen for evaluation of their anticancer activity. From the data analysis, it follows that approximately 95% of the actives from the 60 cell lines screen can be identified. The detailed methods used for the 60 cell lines panel have been described elsewhere [54]–[59]. Briefly, cellular protein levels were determined after 48 hours of drug exposure by SRB colorimetry. Through the use of a time zero cell control, the cell growth can be determined for each cell line thus allowing calculations of GI50, TGI, and LC50. Comparison to plates not exposed to drug permits determination of concentration and times of exposure conferring GI50, TGI, and LC50. […] By these criteria, seven compounds reported from our compounds bank were all active and passed on for evaluation in the full panel of 60 human tumor cell lines. The panel is organized into nine subpanels representing diverse histology: leukemia, melanoma, and cancers of the lung, colon, kidney, ovary, breast, prostate, and central nervous system.

PARP-1 = biological target: T1, PARP-1 (Homo sapiens, UniProt P09874); experiment: PARP inhibitory assay (histone-coated plate, colorimetric); assay type: biochemical
T1 construct: purchased
Description: We used histone-coated 96-well plate treated with seven putative PARP-1 inhibitors or well-known PARP-1 inhibitors (3-AB), and then added PARP enzyme to each well. PARP enzyme catalyzes the NAD-dependent addition of poly (ADP-ribose) to histone, and diluted Strp-HRP could bind to PARylation histone. TACS-Sapphire™ yielded blue under the HRP existence. In order to systematically evaluate the potential anticancer activity, the compounds were tested for their cytotoxicity in vitro against 60 human cancer lines in the NCI anticancer drug screen as well as for dose response curves and telomerase activity. Cell growth was analyzed by the MTT assay, with differences between dose-response curves analyzed non-parametrically. Telomerase activity was detected by a modified version of the PCR-based assay and TRAP assay. […] However, PARP inhibitory effects had no difference at 1 and 10 µM. As described above, NSC746364, NSC746366 and NSC749232 show dose-dependency only at low concentrations. […] NSC747854 had dose-dependent PARP inhibitory manners at three different concentrations, and reached the maximum inhibitory effect of 86% at 10 µM (Table 4). […] In this investigation, we continued to focus our attention on the role of NSC747854 and to understand the basis of pharmacophore selectivity. Of particular note is the significant difference with these selected compounds, compared with that of 3-AB and PJ-34. […] An electron-rich aromatic ring system, including a carboxamide group, should have at least a hydrogen atom on the amide nitrogen. The amidinium moiety is known to contribute to the stabilization of DNA recognition element through electrostatic and hydrogen bonding interactions. Therefore, hydrogen bonds are frequently used as recognition elements due to their directionality and also due to being attractive factors to the biological activity (Figure 1). Many classes of drugs have substantial curvature, high DNA affinity, binding to the minor-groove or major-groove, interference with DNA-associated enzymes (e.g. telomerase), and Poly (ADP-ribose) polymerase, PARP. […] This approach greatly expands the utility of the substituents and related pharmacophore for the construction of drugs in general. Therefore, it is desirable to design PARP inhibitors in accordance with various anticancer parameters. It was first reported that anthraquinone analogues are potent human PARP inhibitors.
Strip wells were removed from the wrapper and 50 µl of 1X PARP Buffer was added to each well to rehydrate the histones. They were incubated at room temperature for 30 minutes. The 1X PARP buffer was removed from the wells by tapping the strip wells on paper towels. The serial dilutions of inhibitor of interest were added to appropriate wells. The diluted PARP enzyme (0.5 unit/well) was then added to the wells containing inhibitor. They were incubated for 10 minutes at room temperature. The PARP Enzyme-High Specific Activity (PARP-HAS) standard was serially diluted in cold micro-tubes with 1X PARP buffer such that the total activity was 1 unit/25 µl, 0.5 units/25 µl, 0.25 units/25 µl, 0.1 units/25 µl, 0.05 units/25 µl, 0.025 units/25 µl, and 0.01 units/25 µl, respectively. The 25 µl of each standard was added to triplicate wells. The 25 µl of 1X PARP cocktail were distributed into each well by using a multichannel pipettor. The final reaction volume is 50 µl. They were incubated along with the strip wells at room temperature for 60 minutes. The strip wells were washed 2 times with 1X PBS +0.1% Triton X-100 (200 µl/well) followed by 2 washes with 1X PBS. All the liquid was removed following each wash by tapping strip wells onto paper towels. The 50 µl diluted Strep-HRP were added per well. They were incubated at room temperature for 60 minutes. The strip wells were washed 2 times with 1X PBS +0.1% Triton X-100 (200 µl/well) followed by 2 washes with 1X PBS. All the liquid was removed following each wash by tapping strip wells onto paper towels. […]

HOP-62 = experiment: NCI-60 drug screen (SRB), NSCLC line HOP-62; assay type: cell-based, human; settings: for GI50 / CC50: Homo sapiens; for CC50: read-out: LC50 (the source's name)
Description: as §1

NCI-H226 = experiment: NCI-60 drug screen (SRB), NSCLC line NCI-H226; assay type: cell-based, human; settings: for GI50 / CC50: Homo sapiens; for CC50: read-out: LC50 (the source's name)
Description: as §1

HEL299 cells = experiment: MTT cytotoxicity assay, HEL299 normal fibroblasts; assay type: cell-based; settings: Homo sapiens, HEL 299, 48 h of drug exposure
Description: Non-small cell lung cancer cells A549 and Oct-4- and Nanog-overexpressed A549 clone (clone #3; A3), presented the properties of cancer stem-like cells, as well as epithelial-mesenchymal transdifferentiation, according to our previous study. They were grown in the same conditions as RPMI 1640 media supplemented with 10% fetal bovine serum (FBS), 100 units/mL penicillin, […] streptomycin, 1 mM sodium pyruvate, 2 mM l-glutamine and 1% non-essential amino acid (NEAA) in a humidified atmosphere with 5% CO2 at 37°C. Normal fibroblast cells HEL299 from American Type Culture Collection (ATCC) were grown in MEM media supplemented with 10% FBS, 100 units/mL penicillin, […] streptomycin, 1 mM sodium pyruvate, 2 mM l-glutamine and 1% NEAA, in a humidified atmosphere with 5% CO2 at 37°C.
The tetrazolium reagent (MTT; 3-(4,5-dimethylthiazol-2-yl)-2,5-diphenyl-tetrazolium bromide, USB) was designed to yield a colored formazan upon metabolic reduction by viable cells, [61]. Approximately 5×10^4 cells were plated onto each well of a 24-well plate and incubated in 5% CO2 at 37°C for 24 hours. To assess the in vitro cytotoxicity, each compound was dissolved in DMSO and prepared immediately before the experiments and then was diluted into the complete medium before being added to cell cultures. Test compounds were then added to the culture medium in various designated concentrations. After 48 hours, an amount of 100 µl of MTT was added to each well, and the samples were incubated at 37°C for 2 h. 100 µl DMSO was added to each well. The absorbency at 560 nm and reference absorbency at 670 nm were measured using an ELISA reader.

[1] = 48 hours drug exposure, SRB, read-out: GI50
[2] = NCI in vitro 60-cell lines Drug Screen, read-out: -Log GI50 (converted)

T1 sequence (P09874 whole entry): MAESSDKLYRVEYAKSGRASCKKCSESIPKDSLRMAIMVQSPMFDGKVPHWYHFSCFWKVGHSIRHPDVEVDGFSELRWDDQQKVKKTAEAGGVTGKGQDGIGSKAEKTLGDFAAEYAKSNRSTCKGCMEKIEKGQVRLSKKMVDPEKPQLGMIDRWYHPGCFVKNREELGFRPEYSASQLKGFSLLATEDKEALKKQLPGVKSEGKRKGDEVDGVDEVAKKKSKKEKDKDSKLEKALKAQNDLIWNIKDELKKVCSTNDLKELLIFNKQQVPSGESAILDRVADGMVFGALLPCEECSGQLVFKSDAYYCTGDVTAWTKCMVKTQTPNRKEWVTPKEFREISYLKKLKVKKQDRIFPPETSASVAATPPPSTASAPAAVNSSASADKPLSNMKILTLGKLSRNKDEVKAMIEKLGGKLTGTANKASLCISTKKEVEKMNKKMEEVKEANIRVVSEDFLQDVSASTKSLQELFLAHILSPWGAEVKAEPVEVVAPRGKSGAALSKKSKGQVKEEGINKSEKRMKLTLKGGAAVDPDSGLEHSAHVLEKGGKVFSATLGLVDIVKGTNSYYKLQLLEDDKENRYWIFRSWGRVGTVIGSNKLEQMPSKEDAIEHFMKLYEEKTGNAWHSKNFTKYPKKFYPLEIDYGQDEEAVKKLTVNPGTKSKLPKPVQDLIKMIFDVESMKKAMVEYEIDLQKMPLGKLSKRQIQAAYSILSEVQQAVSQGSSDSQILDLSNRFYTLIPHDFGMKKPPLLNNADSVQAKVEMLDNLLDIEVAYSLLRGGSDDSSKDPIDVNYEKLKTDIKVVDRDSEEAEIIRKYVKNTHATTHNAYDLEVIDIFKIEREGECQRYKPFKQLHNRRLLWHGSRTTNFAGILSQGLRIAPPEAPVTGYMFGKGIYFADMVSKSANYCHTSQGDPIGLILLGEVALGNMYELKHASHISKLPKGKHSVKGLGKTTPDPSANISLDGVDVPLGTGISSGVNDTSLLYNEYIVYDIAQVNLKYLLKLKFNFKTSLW

SMILES	TGI (NCI-H460; 48 hours drug exposure, SRB) [µM]	LC50 (concentration killing 50% of cells) (NCI-H460; 48 hours drug exposure, SRB) [µM]	GI50 (NCI-H460; [1]) [µM]	GI50 (NCI-H460; [2]) [µM]	inhibition at 0.1 µM (PARP-1) [%]	inhibition at 1 µM (PARP-1) [%]	inhibition at 10 µM (PARP-1; 10 µM) [%]	TGI (HOP-62; 48 hours drug exposure, SRB) [µM]	GI50 (HOP-62; [1]) [µM]	CC50 (HOP-62; 48 hours drug exposure, SRB) [µM]	GI50 (HOP-62; [2]) [µM]	TGI (NCI-H226; 48 hours drug exposure, SRB) [µM]	GI50 (NCI-H226; [1]) [µM]	CC50 (NCI-H226; 48 hours drug exposure, SRB) [µM]	GI50 (NCI-H226; [2]) [µM]	IC50 (HEL299 cells) [µM]	PARP inhibitory activity (%) (PARP-1; 10 µM)
CN(C)CC(=O)Nc1ccc2c(c1)C(=O)c1cc(NC(=O)CN(C)C)ccc1C2=O [NSC746364]	3.35	8.2	1.37	1.38	31	54	56	20.5	4.56	60.8	4.57	32.4	15.5	67.4	15.5	5.67	–
CCN(CC)CCC(=O)Nc1ccc2c(c1)C(=O)c1cc(NC(=O)CCN(CC)CC)ccc1C2=O [NSC746365]	4.85	> 100	1.9	1.91	50	56	51	5.80	1.73	24	1.74	20.3	6.56	45.9	6.61	7.19	–
O=C(CCN1CCCC1)Nc1ccc2c(c1)C(=O)c1cc(NC(=O)CCN3CCCC3)ccc1C2=O [NSC746366]	>100	> 100	2.69	2.69	16	45	47	11.6	2.48	45.4	2.51	12.6	2.72	58.3	2.69	13.4	–
CN(C)CCCSc1nc2ccc3c(c2[nH]1)C(=O)c1ccccc1C3=O [NSC747854]	12.8	–	2.13	2.14	30	57	–	32.3	5.9	48.9	5.89	22.1	3.74	58.7	3.72	27.8	65
Cc1ccc(C(=O)Nc2c(NC(=O)CCl)ccc3c2C(=O)c2ccccc2C3=O)cc1 [NSC749232]	14.1	34.1	5.81	5.75	42	51	52	9.49	2.97	24.4	2.95	20.8	8.81	49.1	8.91	27.1	–
CN1CCN(Cc2nc3ccc4c(c3[nH]2)C(=O)c2ccccc2C4=O)CC1 [NSC749235]	15.2	45.1	3.79	3.8	40	28	58	30.5	19.4	95.4	9.33	31.1	8.32	> 100	8.32	19.6	–
